In US7649002B2, “(3,5-dimethylpiperidin-1yl)(4-phenylpyrrolidin-3-yl)methanone derivatives as MCR4 agonists” (Pfizer Inc, priority 2004, dated 2010):

Key:
[1] = target: T1, human MCR4 receptor (Homo sapiens, UniProt P32245); assay: MCR4 standard functional assay (Protocol C): cAMP AlphaScreen in HEK cells; type: cell-based; conditions: Table 5
T1 construct: expressed in transfected cells
Experimental: (§1) Stimulation of adenylate cyclase following receptor activation is a widely used measure of functional activity for a number of receptor systems. The functional assay to measure cyclic AMP (cAMP) utilises human embryonic kidney (HEK) cells that stably express the human melanocortin MCR1, MCR3 or MCR4 receptor. Activation of MCR1, MCR3 or MCR4 receptors stimulates adenylate cyclase, generating cAMP, which is measured using AlphaScreen™ (PerkinElmer assay kits.
(§2) The AlphaScreen™ cAMP assay kit consists of ‘donor beads’, ‘acceptor beads’, and biotinylated cAMP which links the different beads together. Excitation of this linked complex at […] in the Fusion™-α microplate analyser results in light emission between […].
(§3) (i) MCR1. MCR3 and MCR4 Standard Functional Assay Methodology [Assay Protocol A, B AND C Respectively]
(§4) Determination of activity against the human MCR1, MCR3 and MCR4 receptor subtypes was carried out for compounds according to the present invention using three immortalised human embryonic kidney (HEK) cell lines that had been biologically engineered to express the human melanocortin MCR1, MCR3 or MCR4 receptor subtypes. These cell lines were engineered using protocols akin to those outlined by Gouarderes et al (Gouarderes, C., (2002) Neuroscience, 115(2); 349-361).
(§5) Such-compound-induced activation of these MCR1, MCR3 or MCR4 receptors lead to the stimulation of the cellular enzyme adenylate cyclase, which in turn lead to the cellular generation, and intra-cellular accumulation, of cyclic adenosine monophosphate (cAMP). […] Intracellular levels of cAMP were quantified using the commercially available AlphaScreen™ assay kits from PerkinElmer. A detailed assay protocol and an explanation of the concept underlying this kit is available through the PerkinElmer website (www.perkinelmer.com). The protocol listed below provides a summary this information.
(§6) The quantity of intracellular cAMP produced by compound-induced activation of the MCR1, MCR3 and MCR4 receptors in these three cell lines was measured using a Fusion™-α microplate analyser set to stimulate at a wavelength of 680 nm and to measure the energy emitted at wave lengths between […]. Compound-induced increases in MCR1, MCR3 or MCR4 receptor activation were subsequently quantified as a decrease in the quantity of light emitted at wavelengths between […]. Data analysis was subsequently performed using a curve-fitting program and the apparent potency of the test compound (expressed as an EC50 and defined as the effective compound concentration that elicited 50% of the maximum compound-induced response) extrapolated from the fitted curve.
Stimulation buffer (as per AlphaScreen™ protocol): HBSS supplemented with 0.5 mM IBMX, 5 mM HEPES, 0.1% (w/v) BSA and 10 mM MgCl2. […]

[2] = target: T2, human MCR3 receptor (Homo sapiens, UniProt P41968); assay: MCR3 standard functional assay (Protocol B): cAMP AlphaScreen in HEK cells; type: cell-based; conditions: Table 5; for Selectivity MCR3/MCR4: MCR4 by Protocol C; for EC50: Protocol B
T2 construct: expressed in transfected cells
T2 sequence (P41968 whole entry): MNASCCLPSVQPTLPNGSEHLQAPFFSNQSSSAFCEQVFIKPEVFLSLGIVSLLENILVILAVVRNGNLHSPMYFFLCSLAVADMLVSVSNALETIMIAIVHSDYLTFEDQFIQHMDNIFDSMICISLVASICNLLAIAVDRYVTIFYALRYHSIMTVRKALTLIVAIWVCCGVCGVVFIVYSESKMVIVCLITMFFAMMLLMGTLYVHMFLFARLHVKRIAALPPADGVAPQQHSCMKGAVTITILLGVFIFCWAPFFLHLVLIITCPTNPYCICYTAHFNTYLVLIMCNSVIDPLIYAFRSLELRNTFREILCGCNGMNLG
Experimental: as §1, §2, §3, §4, §5, §6
Stimulation buffer (as per AlphaScreen™ protocol): HBSS supplemented with 0.5 mM IBMX, 5 mM HEPES, 0.1% (w/v) BSA and 10 mM MgCl2.
Lysis buffer (as per AlphaScreen™ protocol): 5 mM HEPES solution supplemented with 0.1% (w/v) BSA and 0.3% (v/v) Tween-20.
Detection mix (as per AlphaScreen™ protocol): Lysis buffer supplemented with the biotinylated cAMP (10 nM) and Donor beads (10 μg/ml) as supplied in the AlphaScreenT cAMP assay kit.
For the MCR1, MCR3 and MCR4 standard functional assay methodologies compounds were initially dissolved in DMSO to give a compound concentration of 4 mM and then further diluted for the assay in stimulation buffer to give actual concentrations 2-fold greater than that desired as the final assay concentration.
The three HEK cell lines, as detailed hereinbefore, expressing the human MCR1, MCR3 or MCR4 receptor subtypes were grown in T225 vent cap flasks containing 50 ml of growth medium (DMEM supplemented with 10% (v/v) FCS, 2 mM L-Glutamine, 25 mM HEPES and 1.0 mg/ml Geneticin) and maintained in a cell incubator at a temperature of 37° C. and in an environment containing 5% CO2. Cells were harvested when they reached 80-90% confluency by first removing the existing growth medium and then washing with PBS that had been pre-warmed to a temperature of 37° C. […]

T1 sequence (P32245 whole entry): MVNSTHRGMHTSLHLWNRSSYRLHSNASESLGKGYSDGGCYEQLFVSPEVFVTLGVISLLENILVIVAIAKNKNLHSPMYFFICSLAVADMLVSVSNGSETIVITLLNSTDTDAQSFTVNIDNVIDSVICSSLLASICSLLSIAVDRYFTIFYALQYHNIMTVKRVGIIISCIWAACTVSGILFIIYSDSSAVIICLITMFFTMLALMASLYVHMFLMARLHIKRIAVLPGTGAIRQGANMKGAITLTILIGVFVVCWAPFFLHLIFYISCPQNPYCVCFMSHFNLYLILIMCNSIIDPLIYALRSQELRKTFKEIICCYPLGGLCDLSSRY

Row | EC50 [1] [nM] | Selectivity MCR3/MCR4 [2] | EC50 [2] [nM] | SMILES
1 | 68 | 123 | 8380 | CCN1C[C@@H](C(=O)N2C[C@@H](C)[C@](O)(C3CCCCC3)[C@@H](C)C2)[C@H](c2ccc(F)cc2F)C1 (relative stereo) [Example 2, (3R,4R,5S)-4-Cyclohexyl-1-{[(3S*,4R*)4-(2,4-difluorophenyl)-1-ethylpyrrolidin-3-yl]carbonyl}-3,5-dimethylpiperidin-4-ol]
2 | 44 | 60 | 2620 | CCCC[C@@]1(O)[C@H](C)CN(C(=O)[C@@H]2CN(C(C)(C)C)C[C@H]2c2ccc(F)cc2F)C[C@@H]1C [Example 3, (3R,4R,5S)-4-Butyl-1-{[(3S,4R)-1-tert-butyl-4-(2,4-difluorophenyl)pyrrolidin-3-yl]carbonyl}-3,5-dimethylpiperidin-4-ol]
